Source: ChEMBL document CHEMBL1909046, “DrugMatrix in vitro pharmacology data”

Tests used:
[1] = biological target: Beta-2 adrenergic receptor (Homo sapiens, UniProt P07550); assay: DRUGMATRIX: Adrenergic beta2 radioligand binding (ligand: [3H] CGP-12177); type: cell membranes, Membrane; conditions: cho; Not Active = under 50% inhibition at 10 µM
[2] = DRUGMATRIX: Tumor Necrosis Factor (TNF), Non-Selective radioligand binding (ligand: [125I] TNF-alpha); type: cell membranes, Membrane; conditions: u-937; Not Active = under 50% inhibition at 10 µM
Progesterone receptor = biological target: T1, Progesterone receptor (Bos taurus, UniProt Q690N0); assay: DRUGMATRIX: Progesterone radioligand binding (ligand: [3H] R-5020); type: tissue-based, Uterus; conditions: Not Active = under 50% inhibition at 10 µM
T1 sequence (Q690N0 whole entry): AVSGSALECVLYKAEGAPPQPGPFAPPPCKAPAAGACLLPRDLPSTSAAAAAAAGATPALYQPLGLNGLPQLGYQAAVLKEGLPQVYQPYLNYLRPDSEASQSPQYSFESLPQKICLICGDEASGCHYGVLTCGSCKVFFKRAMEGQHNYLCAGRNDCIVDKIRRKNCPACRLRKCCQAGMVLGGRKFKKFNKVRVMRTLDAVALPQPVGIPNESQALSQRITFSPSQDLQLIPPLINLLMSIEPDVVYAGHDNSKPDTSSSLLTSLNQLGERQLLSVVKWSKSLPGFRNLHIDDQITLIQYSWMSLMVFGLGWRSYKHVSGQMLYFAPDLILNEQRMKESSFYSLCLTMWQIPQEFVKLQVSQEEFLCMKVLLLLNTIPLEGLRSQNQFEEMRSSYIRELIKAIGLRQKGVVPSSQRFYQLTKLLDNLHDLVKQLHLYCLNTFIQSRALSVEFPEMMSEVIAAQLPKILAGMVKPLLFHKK

Melanocortin receptor 5 = Melanocortin receptor 5 (Homo sapiens, UniProt P33032); type: cell membranes, HEK293, Membrane; conditions: hek293; further: in other assays of this panel Not Active means under 50% inhibition at 10 µM
Cytochrome P450 2C9 = Cytochrome P450 2C9 (Homo sapiens, UniProt P11712); conditions: bti-tn-5b1-4; further: in other assays of this panel Not Active means under 50% inhibition at 10 µM
[3] = biological target: T2, Vasoactive intestinal polypeptide receptor 1 (Homo sapiens, UniProt P32241); type: cell membranes, Membrane; conditions: ht-29; further: in other assays of this panel Not Active means under 50% inhibition at 10 µM
T2 sequence (P32241 whole entry): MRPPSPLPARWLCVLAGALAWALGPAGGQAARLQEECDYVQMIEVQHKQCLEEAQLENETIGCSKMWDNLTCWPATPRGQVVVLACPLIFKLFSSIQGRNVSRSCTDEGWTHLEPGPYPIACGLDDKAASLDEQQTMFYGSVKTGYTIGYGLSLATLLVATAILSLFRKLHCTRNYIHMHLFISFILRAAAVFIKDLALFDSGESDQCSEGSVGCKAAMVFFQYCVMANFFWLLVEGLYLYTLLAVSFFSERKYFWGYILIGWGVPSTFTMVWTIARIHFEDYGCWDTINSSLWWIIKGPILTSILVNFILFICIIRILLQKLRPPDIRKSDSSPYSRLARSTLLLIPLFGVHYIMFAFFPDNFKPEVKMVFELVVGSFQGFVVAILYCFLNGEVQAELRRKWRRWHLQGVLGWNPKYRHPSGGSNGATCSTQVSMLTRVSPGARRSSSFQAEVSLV

[4] = DRUGMATRIX: GABAA, Muscimol, Central radioligand binding (ligand: [3H] Muscimol); type: cell membranes, Rattus norvegicus, Wistar, Brain, Membrane; conditions: Not Active = under 50% inhibition at 10 µM
[5] = biological target: T3, Neuropeptide Y receptor type 1 (Homo sapiens, UniProt P25929); type: cell membranes, Membrane; conditions: sk-n-mc; further: in other assays of this panel Not Active means under 50% inhibition at 10 µM
T3 sequence (P25929 whole entry): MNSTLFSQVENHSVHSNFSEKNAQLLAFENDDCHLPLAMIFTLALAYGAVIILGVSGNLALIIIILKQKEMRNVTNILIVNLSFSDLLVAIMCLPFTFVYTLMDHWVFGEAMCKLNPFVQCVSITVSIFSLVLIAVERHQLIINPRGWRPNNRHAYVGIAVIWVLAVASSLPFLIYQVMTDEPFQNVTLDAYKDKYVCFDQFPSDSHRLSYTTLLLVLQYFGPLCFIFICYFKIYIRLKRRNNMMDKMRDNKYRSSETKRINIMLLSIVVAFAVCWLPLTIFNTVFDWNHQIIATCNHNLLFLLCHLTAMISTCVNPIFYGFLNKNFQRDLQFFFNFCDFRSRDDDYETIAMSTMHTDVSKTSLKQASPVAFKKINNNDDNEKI

[6] = biological target: T4, Cholecystokinin receptor type A (Homo sapiens, UniProt P32238); type: cell membranes, Membrane; conditions: 1321-n1; further: in other assays of this panel Not Active means under 50% inhibition at 10 µM
T4 sequence (P32238 whole entry): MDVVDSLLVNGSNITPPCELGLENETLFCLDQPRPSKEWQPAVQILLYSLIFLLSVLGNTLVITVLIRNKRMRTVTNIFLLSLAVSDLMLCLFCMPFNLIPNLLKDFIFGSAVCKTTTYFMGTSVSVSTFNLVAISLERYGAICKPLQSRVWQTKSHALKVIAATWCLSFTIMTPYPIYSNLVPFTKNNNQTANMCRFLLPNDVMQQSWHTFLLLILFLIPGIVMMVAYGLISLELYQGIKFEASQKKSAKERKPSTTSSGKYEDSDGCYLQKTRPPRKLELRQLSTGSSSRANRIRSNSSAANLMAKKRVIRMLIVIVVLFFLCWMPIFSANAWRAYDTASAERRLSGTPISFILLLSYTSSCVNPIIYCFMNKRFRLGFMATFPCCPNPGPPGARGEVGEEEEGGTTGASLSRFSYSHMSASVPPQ

[7] = biological target: T5, Amine oxidase [flavin-containing] A (Homo sapiens, UniProt P21397); assay: DRUGMATRIX: Monoamine Oxidase MAO-A enzyme inhibition (substrate: Kynuramine); design: species or system BTI-TN-5B1-4; conditions: bti-tn-5b1-4; Not Active = under 50% inhibition at 10 µM
T5 sequence (P21397 whole entry): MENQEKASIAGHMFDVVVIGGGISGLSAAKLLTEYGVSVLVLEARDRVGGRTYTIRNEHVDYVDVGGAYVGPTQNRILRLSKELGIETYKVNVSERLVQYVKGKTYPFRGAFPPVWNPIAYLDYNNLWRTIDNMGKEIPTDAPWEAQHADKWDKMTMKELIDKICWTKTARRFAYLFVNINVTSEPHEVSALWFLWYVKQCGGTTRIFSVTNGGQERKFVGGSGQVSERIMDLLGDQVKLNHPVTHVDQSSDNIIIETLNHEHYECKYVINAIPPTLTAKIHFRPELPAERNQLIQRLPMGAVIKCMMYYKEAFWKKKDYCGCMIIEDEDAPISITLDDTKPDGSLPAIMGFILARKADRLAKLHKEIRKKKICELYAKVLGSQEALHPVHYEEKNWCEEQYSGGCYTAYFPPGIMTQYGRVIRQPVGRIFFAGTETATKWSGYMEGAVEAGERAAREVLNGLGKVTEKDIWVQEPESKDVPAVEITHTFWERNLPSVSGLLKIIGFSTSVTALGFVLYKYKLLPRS

[8] = biological target: Protein phosphatase 3 catalytic subunit alpha (Homo sapiens, UniProt Q08209); design: species or system Escherichia coli

Sequence of Melanocortin receptor 5 (P33032 whole entry): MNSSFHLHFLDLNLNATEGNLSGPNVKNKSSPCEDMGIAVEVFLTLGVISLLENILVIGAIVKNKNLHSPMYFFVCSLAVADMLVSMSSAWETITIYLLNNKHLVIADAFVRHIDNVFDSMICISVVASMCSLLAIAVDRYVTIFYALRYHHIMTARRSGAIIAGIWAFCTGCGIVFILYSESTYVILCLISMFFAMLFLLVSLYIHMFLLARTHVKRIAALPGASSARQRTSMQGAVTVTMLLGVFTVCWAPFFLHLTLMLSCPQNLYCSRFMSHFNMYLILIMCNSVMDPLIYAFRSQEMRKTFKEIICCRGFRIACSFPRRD
Sequence of Cytochrome P450 2C9 (P11712 whole entry): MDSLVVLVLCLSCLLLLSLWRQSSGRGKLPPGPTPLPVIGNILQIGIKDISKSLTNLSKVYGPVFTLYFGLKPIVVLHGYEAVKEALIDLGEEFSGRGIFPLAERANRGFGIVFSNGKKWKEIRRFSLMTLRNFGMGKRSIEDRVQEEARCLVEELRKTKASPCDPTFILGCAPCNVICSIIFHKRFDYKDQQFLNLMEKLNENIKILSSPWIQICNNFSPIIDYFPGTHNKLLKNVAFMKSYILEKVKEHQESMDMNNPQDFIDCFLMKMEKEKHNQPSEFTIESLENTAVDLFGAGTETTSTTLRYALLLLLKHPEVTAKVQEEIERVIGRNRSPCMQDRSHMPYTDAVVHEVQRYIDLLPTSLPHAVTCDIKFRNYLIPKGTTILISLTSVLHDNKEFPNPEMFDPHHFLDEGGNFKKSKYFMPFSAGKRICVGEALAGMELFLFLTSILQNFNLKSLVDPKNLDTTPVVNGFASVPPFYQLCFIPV
Sequence of Beta-2 adrenergic receptor (P07550 whole entry): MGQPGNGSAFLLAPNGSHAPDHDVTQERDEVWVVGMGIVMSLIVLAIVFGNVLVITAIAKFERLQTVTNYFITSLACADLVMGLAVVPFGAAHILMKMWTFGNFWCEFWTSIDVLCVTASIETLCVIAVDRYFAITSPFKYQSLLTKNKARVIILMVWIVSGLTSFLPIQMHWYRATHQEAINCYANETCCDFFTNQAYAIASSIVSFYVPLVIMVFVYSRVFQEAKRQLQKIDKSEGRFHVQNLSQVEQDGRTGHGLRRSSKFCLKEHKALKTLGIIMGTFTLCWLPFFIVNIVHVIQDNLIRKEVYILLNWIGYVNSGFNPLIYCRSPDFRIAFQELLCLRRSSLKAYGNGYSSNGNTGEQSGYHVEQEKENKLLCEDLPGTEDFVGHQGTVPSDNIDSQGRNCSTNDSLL

| SMILES | IC50 [1] | IC50 [2] | Ki [2] | IC50 (Progesterone receptor) | IC50 (Melanocortin receptor 5) | IC50 (Cytochrome P450 2C9) | Ki (Cytochrome P450 2C9) | IC50 [3] | IC50 [4] | Ki [4] | IC50 [5] | IC50 [6] | IC50 [7] | IC50 [8] | IC50 (Progesterone receptor; read-out: IC50) [nM] | Ki (Progesterone receptor; read-out: Ki) [nM] |
| --- | --- | --- | --- | --- | --- | --- | --- | --- | --- | --- | --- | --- | --- | --- | --- | --- |
| COCc1c(C(C)C)nc(C(C)C)c(/C=C/[C@@H](O)C[C@@H](O)CC(=O)O)c1-c1ccc(F)cc1 [CERIVASTATIN] | Not Active | Not Active | Not Active | Not Active | Not Active | Not Active | Not Active | Not Active | Not Active | Not Active | Not Active | Not Active | Not Active | Not Active | – | – |
| O=C1NC(=O)C(c2ccccc2)(c2ccccc2)N1 [PHENYTOIN] | Not Active | Not Active | Not Active | Not Active | Not Active | Not Active | Not Active | Not Active | Not Active | Not Active | Not Active | Not Active | Not Active | Not Active | – | – |
| C=C1CC[C@H](O)C/C1=C/C=C1\CCC[C@]2(C)[C@@H]([C@H](C)/C=C/[C@H](C)C(C)C)CC[C@@H]12 [ERGOCALCIFEROL] | Not Active | Not Active | Not Active | Not Active | Not Active | Not Active | Not Active | Not Active | Not Active | Not Active | Not Active | Not Active | Not Active | Not Active | – | – |
| COc1ccc(CN(CCN(C)C)c2ccccn2)cc1 [PYRILAMINE] | Not Active | Not Active | Not Active | Not Active | Not Active | Not Active | Not Active | Not Active | Not Active | Not Active | Not Active | Not Active | Not Active | Not Active | – | – |
| CN1C(C(=O)Nc2ccccn2)=C(O)c2ccccc2S1(=O)=O [PIROXICAM] | Not Active | Not Active | Not Active | Not Active | Not Active | Not Active | Not Active | Not Active | Not Active | Not Active | Not Active | Not Active | Not Active | Not Active | – | – |
| CCc1ccc(C(=O)C(C)CN2CCCCC2)cc1 (stereo unspecified) [EPERISONE] | Not Active | Not Active | Not Active | Not Active | Not Active | Not Active | Not Active | Not Active | Not Active | Not Active | Not Active | Not Active | Not Active | Not Active | – | – |
| CC(=O)[C@@]1(O)CC[C@H]2[C@@H]3C[C@H](C)C4=CC(=O)C=C[C@]4(C)[C@@]3(F)[C@@H](O)C[C@@]21C [FLUOROMETHOLONE] | Not Active | Not Active | Not Active | – | Not Active | Not Active | Not Active | Not Active | Not Active | Not Active | Not Active | Not Active | Not Active | Not Active | 815 | 106 |
| CCC1(c2ccccc2)C(=O)NCNC1=O [PRIMIDONE] | Not Active | Not Active | Not Active | Not Active | Not Active | Not Active | Not Active | Not Active | Not Active | Not Active | Not Active | Not Active | Not Active | Not Active | – | – |
| N#C[C@H](O[C@@H]1O[C@H](CO[C@@H]2O[C@H](CO)[C@@H](O)[C@H](O)[C@H]2O)[C@@H](O)[C@H](O)[C@H]1O)c1ccccc1 [AMYGDALIN] | Not Active | Not Active | Not Active | Not Active | Not Active | Not Active | Not Active | Not Active | Not Active | Not Active | Not Active | Not Active | Not Active | Not Active | – | – |
| CC(C)(Oc1ccc(CCNC(=O)c2ccc(Cl)cc2)cc1)C(=O)O [BEZAFIBRATE] | Not Active | Not Active | Not Active | Not Active | Not Active | Not Active | Not Active | Not Active | Not Active | Not Active | Not Active | Not Active | Not Active | Not Active | – | – |
